For one data set, the system named is U87 glioblastoma cells. Description: Cell cycle analysis (propidium iodide flow cytometry). The data set is classed as cell-based, human. The following applies: U87, 5 µM, 48 h. Here is the method: […] Cells were washed in ice-cold PBS, resuspended in 1 mL of ice-cold 70% ethanol, and fixed overnight at −20 °C. Cells were centrifuged and resuspended in PBS containing RNAse A at a final concentration of 0.5 mg/mL (MilliporeSigma 10109142001; Burlington, MA, USA) and propidium iodide at a final concentration of 0.04 mg/mL (Sigma-Aldrich P4170, St. Louis, MO, USA) for 1 h at 37 °C. Nuclear staining was analyzed using a BD FACSCanto II flow cytometer (BD Biosciences; Franklin Lakes, NJ, USA) to determine cell cycle distribution. Cell cycle analysis was performed using the BD FACSDiva software v8.0.
(In general: In flow cytometry, cells or beads pass a laser one at a time.)

The test system of data set [1] is HMC3 microglial cells (non-tumorigenic). Description: alamarBlue cell viability assay, HMC3. The format is cell-based, human. The conditions noted are these: HMC3, up to 10 μM. As for the experimental part:
Cells (100 µL/well) were seeded in 96-well tissue culture plates (Greiner Bio-One 650090; Kremsmünster, Austria). The plating density (cells/well) for each cell line was as follows: LN-18 (3000), U87 (4000), and HMC3 (5000). After overnight incubation, compounds were added to the cells (50 µL at 3× concentration, final 0.1% DMSO), and plates were incubated for 72 h. Cell viability was assessed by the addition of 25 µL of alamarBlue for a final concentration of 100 µM final concentration (Resazurin redox reagent, Sigma-Aldrich R7017; St. Louis, MO, USA). After a 4 h incubation, fluorescence was read on a CLARIOstar Plus plate reader (BMG Labtech, Ortenberg, Germany) at EX 570/EM 590 nm.
(The colour change of resazurin is a common sign of viable cells or microbes.)

Data set [2] has as its system GBM12 patient-derived GB cells. Description: CellTiter-Glo viability assay, patient-derived GBM12 cells. The data set is classed as cell-based. The following applies: Homo sapiens, GBM12, 144 h, read-out: IC50 cell viability. Here is the method:
Short-term cultures of patient-derived cells GBM12, GBM15, GBM39 and GBM43 (used with permission Mayo Foundation) were seeded (1000 cells/well) in solid white Corning 384-well plates (Corning, NY, USA) and cultured overnight. Cells were treated with DMSO or RGN3067 in a 13-point dose response with a 1:3 serial dilution from an initial concentration of 100 μM. After 144 h, cell viability was measured using CellTiter-Glo (Promega, Madison, WI, USA). Data were normalized to DMSO control, and absolute IC50 values were calculated using GraphPad Prism 10 (San Diego, CA, USA).
Background: ATP-based viability assays read luminescence as a measure of living cells.

Another data set has as its target T1, porcine tubulin (Sus scrofa, UniProt P02554).
T1 construct: purchased Cytoskeleton, Inc. BK011P
Description: Tubulin polymerization assay (fluorescent reporter). The data set is classed as biochemical. The conditions noted are these: compound 5 μM, porcine tubulin 20 μM, relative to DMSO. Here is the method:
Tubulin polymerization was evaluated by monitoring the incorporation of a fluorescent reporter into MTs during polymerization. The tubulin polymerization assay kit (Cytoskeleton, Inc. BK011P; Denver, CO, USA) was used according to the manufacturer’s instructions. Briefly, the tubulin reaction mix was kept on ice until immediately prior to use.
(A,B) Representative tubulin polymerization plots and data quantification. […] (C) Immunofluorescence staining of β-tubulin in U87 glioblastoma cells. […] Images were captured using an Operetta confocal microscope at 40× magnification. Scale bar, 10 μm. […] Data was collected with a BD FACS Canto II Flow Cytometer and analyzed using the BD FACSDiva software. (E) The percentage of cells in G1, S, and G2/M phases from the histograms in (D). Data are plotted as mean ± SD from at least three independent experiments. Analysis between groups in (B) was performed using a one-way ANOVA with Tukey’s multiple comparisons test.

Data set [3] can be described thus: Plasma protein binding (dialysis). The format is in vitro ADME. The following applies: range over mouse, rat, and human plasma. Here is the method: Compounds (5 µM/0.2% DMSO) were tested in dialysis chambers. Blank dialysis buffer was added to the receiver side (100 μL), and plasma (100 μL) with test and reference compounds was added to the donor side of the chamber and incubated at 37 °C on an orbital shaker. Plasma was precipitated at 0 and 5 h. Aliquots from donor and receiver sides of the dialysis apparatus (25 μL) were added to sample preparation plates and mixed with aliquots of the opposite matrix (25 μL, blank buffer to plasma and vice versa). Samples were quenched with stop solution (400 μL) containing internal standard, vortexed at 600 rpm for 10 min, and centrifuged at 4000 rpm for 10 min. Supernatants were analyzed by LC-MS. Quinidine and warfarin were used as positive controls.

The next data set relates to U87 cells. Description: Reversibility (washout) cell viability assay. The data set is classed as cell-based. The conditions noted are these: Homo sapiens, U-87 MG.
Data set [4] can be described thus: Plasma pharmacokinetics after oral dosing. The format is in vivo, CD-1 mice. The following applies: mouse, 100 mg/kg oral, CD-1 male mice. As for the experimental part: Pharmacokinetic studies were carried out by DMPK at WuXi AppTec, Inc. (Cranbury, NJ, USA). The pharmacokinetics of RGN3067 were evaluated in three male CD-1 mice. RGN3067 formulated as a 10 mg/mL solution (20% DMSO, 80% PEG400: PVP 95:5) was administered by oral gavage at a dose of 100 mg/kg. Plasma samples were drawn at 0.5, 1, 2, 4, 6, 10 and 24 h. Samples were analyzed by LC-MS/MS. A calibration curve was established using Waters ACQUITY UPLC BEH C18 column and formic acid in water and formic acid in acetonitrile as mobile phase. Tolbutamide and labetalol were used as internal standards for LC-MS/MS analysis. Compound was detected using electrospray ionization (ESI) positive detection. Pharmacokinetic parameters were calculated using the PO-noncompartmental linear model in Phoenix WinNonlin software v8.3 (Certara, Princeton, NJ, USA).

Data set [5] can be described thus: Kinetic solubility in phosphate buffer. The format is physicochemical. The conditions noted are these: 100 mM phosphate buffer, 1% DMSO. Here is the method:
Kinetic solubility was determined in phosphate buffer. The compound (4 µL, 10 mM DMSO) was added to the buffer (396 μL 100 mM phosphate buffer, final 1% DMSO) and shaken at 1000 rpm at RT for 1 h. Samples were filtered (Millipore MSSLBPC10; Burlington, MA, USA), the primary filtrate was discarded, and the subsequent filtrate was collected. The supernatant solution was diluted 10× with DMSO. Test samples (10 µL) and working standard curve samples were added to the stop solution (100 μL, containing internal standard) and water/0.1% FA (100 μL). Samples were analyzed by LC-MS/MS. Albendazole, propranolol, and 4,5-diphenylimidazole were used as positive controls.

For orientation: IC50 means the concentration that inhibits the measured activity by half. The term fraction unbound denotes free concentration divided by total concentration. Lower therefore signals extensive binding. For orientation: AUC means concentration integrated over time. Lower therefore signals low exposure. A word on the Cmax: it is the peak of the concentration-time curve. Broadly, the Tmax is the time at which the peak concentration occurs. As a reminder, the half-life is the time in which the quantity being followed falls by half. Low readings indicate fast loss, high ones slow loss. By solubility (kinetic) is commonly meant solubility judged after dilution from a stock solution rather than from solid.

Values after ≈ are worked out from the molar mass of the structure shown. Values joined by “and” are separate entries in the source; they are usually repeats but may differ in a detail not shown here. Identical values can stand only once. Like-named read-outs stand apart in the source and are kept apart here.

T1 sequence (P02554 whole entry): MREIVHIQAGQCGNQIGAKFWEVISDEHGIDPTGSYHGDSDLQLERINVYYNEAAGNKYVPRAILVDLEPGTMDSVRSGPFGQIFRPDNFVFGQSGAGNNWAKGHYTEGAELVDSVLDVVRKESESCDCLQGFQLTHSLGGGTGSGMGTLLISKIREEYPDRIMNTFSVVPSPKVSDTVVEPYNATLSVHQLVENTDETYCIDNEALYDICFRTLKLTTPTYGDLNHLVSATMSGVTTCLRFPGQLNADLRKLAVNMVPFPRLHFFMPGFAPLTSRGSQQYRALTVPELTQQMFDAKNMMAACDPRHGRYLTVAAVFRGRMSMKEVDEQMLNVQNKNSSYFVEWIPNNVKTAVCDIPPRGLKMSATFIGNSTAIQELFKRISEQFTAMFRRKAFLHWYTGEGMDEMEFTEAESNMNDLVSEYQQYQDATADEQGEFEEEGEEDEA
T1 sequence (P02550 whole entry partner): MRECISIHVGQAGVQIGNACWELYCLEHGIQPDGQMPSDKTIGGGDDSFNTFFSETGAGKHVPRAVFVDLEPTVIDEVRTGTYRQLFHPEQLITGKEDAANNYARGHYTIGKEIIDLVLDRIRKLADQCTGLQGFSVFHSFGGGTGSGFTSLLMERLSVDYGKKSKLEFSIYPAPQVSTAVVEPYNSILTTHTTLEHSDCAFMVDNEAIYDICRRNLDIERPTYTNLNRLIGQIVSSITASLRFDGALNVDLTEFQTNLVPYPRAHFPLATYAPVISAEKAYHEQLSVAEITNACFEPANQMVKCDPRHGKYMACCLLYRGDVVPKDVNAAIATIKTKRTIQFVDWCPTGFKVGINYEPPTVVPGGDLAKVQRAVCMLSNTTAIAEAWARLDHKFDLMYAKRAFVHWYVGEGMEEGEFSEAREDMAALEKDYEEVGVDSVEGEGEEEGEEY

As for `CO[C@H]1C[C@@H](C(=O)NC(=O)Nc2ccc(Oc3ccc(Cl)cn3)c(C)c2)C1` [RGN3067], the “cells arrested at G2/M” value in the data set on U87 glioblastoma cells amounted to 73%. In addition, the “inhibition of cell viability” value in data set [1] is reported as “does not significantly inhibit”. Further, the 50% inhibitory concentration (IC50) in data set [2] worked out at 148 nM. Also, the “reduction in tubulin polymerization (AUC)” value at porcine tubulin is recorded as 49%. This compound also gave a fraction unbound at 5 h, 5 µM in data set [3] of 0.018 to 0.026. Also, in the data set with U87 cells (U87, compound left in medium, 72 h, read-out: IC50 cell viability, no-washout), the concentration for half-maximal inhibition (IC50) worked out at 571 nM. In the data set with U87 cells (U87, compound washed out after 6 h, then 72 h, read-out: IC50 cell viability, after washout), the IC50 was > 10000 nM. In addition, in data set [4], the area under the curve (AUC) is 51200 ng·h/mL; the peak concentration (Cmax) was 7810 ng/mL and 20 µM; the time of peak concentration (Tmax) stood at 2 h; the half-life was 3.61 ± 1.94 h. In data set [5], this compound gave a solubility (kinetic) at 1 h of 5.7 µM (≈ 2.22 µg/mL).

The values are drawn from article PMC10887108, “Novel Brain-Penetrant, Small-Molecule Tubulin Destabilizers for the Treatment of Glioblastoma” (Biomedicines, 2024).
